Read-outs that look alike come from different tables or passages of the source.
What was measured:
[1] = tested on: carbon tetrachloride-induced liver damage; test: carbon tetrachloride-induced liver damage in rats (plasma GOT, GPT); type: in vivo, rat; details: for cytoprotective activity compared with known compound H / cytoprotective activity: in words; for cytoprotective activity compared with known compound H: comparison with compound H; for cytoprotective activity: from the Table; for inhibition in vivo at 0.05 mg/kg / inhibition in vivo at 0.1 mg/kg / inhibition in vivo at 0.02 mg/kg / inhibition in vivo at 0.2 mg/kg: po, CCl4, rat, vs controls; for inhibition in vivo at 0.05 mg/kg: 50 μg/kg p.o.; for inhibition in vivo at 0.1 mg/kg: 100 μg/kg p.o.; for inhibition in vivo at 0.02 mg/kg: 20 μg/kg p.o.; for inhibition in vivo at 0.2 mg/kg: 200 μg/kg p.o.
From the text: In the following Table, the pharmacological activities, i.e. carbon tetrachloride-induced cytodamage inhibition as an example of cytoprotective activity, and hypotensive and platelet aggregation inhibition activities as examples of side-effects, of known compounds are compared with those of compounds A, B and C of the invention.
^(1) The method used was that described in the specification of U.S.

[2] = tested on: α-naphthylisothiocyanate-induced liver damage; test: α-naphthylisothiocyanate-induced liver damage in rats; type: in vivo; details: rat, 100 μg/kg oral, vs controls
[3] = tested on: D(+)-galactosamine-induced liver damage; test: D(+)-galactosamine-induced liver damage in rats; type: in vivo; details: D(+)-galactosamine 375 mg/kg i.p. twice, rat, 100 μg/kg oral five times, blood at 48 hrs, vs control
uterine contraction = uterine contraction in the pregnant female rat; type: in vivo; details: 20th day of gestation, i.v., doses of 50 and 20 μg/kg (compound A and compound B)
blood pressure = test: hypotensive effect in the allobarbital anesthetized dog; type: in vivo; details: for duration of fall in blood pressure / fall in blood pressure: allobarbital anesthetized dog; for duration of fall in blood pressure / fall in blood pressure / Hypotensive effect (E1 = 1): i.v.; for hypotensive side-effect: in words, in comparison with known compounds D, E, F and G; for Hypotensive effect (E1 = 1): relative to PGE1 taken as 1.00, allobarbital anesthetised dog
Procedure: (ii) by intravenous administration to the allobarbital anesthetized dog, compound B produced falls in blood pressure of 13 and 31 mmHg lasting 17 and 37 minutes at the doses of 1 and 2 μg/kg animal body weight, respectively.
(§1) In the Table, the values of side-effects are indicated relative to the activity of PGE1, taken as 1.00.
^(2) By intravenous administration to the allobarbital anesthetised

[4] = tested on: adenosine diphosphate-induced blood platelet aggregation; test: inhibition of adenosine diphosphate-induced blood platelet aggregation in platelet rich plasma of rats; type: cell-based, rat; details: for platelet aggregation inhibiting side-effect: in words, in comparison with known compounds D, E, F and G; for Platelet aggregation inhibition (E1 = 1): relative to PGE1 taken as 1.00, ADP-induced, platelet rich plasma of rats
From the text: as §1
^(3) Inhibition of adenosine diphosphateinduced blood platelet
aggregation in plateletrich plasma of rats.

mice = test: acute toxicity in mice by oral administration; type: in vivo, mouse; details: 10 mg/kg animal body weight, 5 cases
From the text: Therefore, the compounds of the present invention may be considered to be sufficiently safe and suitable for medical use.

[5] = read-out: inhibition of plasma GOT (glutamic oxaloacetic transaminase)
[6] = read-out: inhibition of plasma GPT (glutamic pyruvic transaminase)

Row | Platelet aggregation inhibition (E1 = 1) [4] | Compound | cytoprotective activity compared with known compound H [1] | cytoprotective activity [1] | hypotensive side-effect (blood pressure) | Hypotensive effect (E1 = 1) (blood pressure) | platelet aggregation inhibiting side-effect [4] | deaths in acute toxicity test (mice) | inhibition in vivo at 0.1 mg/kg [1, 5] [%] | also measured
1 | 58.6 | CCCC1CCC([C@H](O)/C=C/[C@H]2[C@H](O)CC(=O)[C@@H]2CC(=O)CCCCC(=O)OC)C1 (stereo partly shown) [E, 6Oxo-15-(3RS-propyl-1RS-cyclopentyl)-16,17,18,19,20-pentanor-PGE1 methyl ester, reference compound] | – | possess cytoprotective activity | – | 25.7 | – | – | 77 | –
2 | 48.4 | CCCC1CCC([C@H](O)/C=C/[C@H]2[C@H](O)CC(=O)[C@@H]2CC(=O)CCCCC(=O)O)C1 (stereo partly shown) [D, 6Oxo-15-(3RS-propyl-1RS-cyclopentyl)-16,17,18,19,20-pentanor-PGE1, reference compound] | – | possess cytoprotective activity | – | 13 | – | – | – | –
3 | 19.7 | CCCC1CCC([C@H](O)/C=C/[C@H]2[C@H](O)CC(=O)[C@@H]2CC(=O)CCCCC(=O)OC)CC1 (stereo partly shown) [G, 6Oxo-15-(4RS-propyl-1RS-cyclohexyl)-16,17,18,19,20-pentanor-PGE1 methyl ester, reference compound] | – | possess cytoprotective activity | – | 6.2 | – | – | – | –
4 | – | CCCCC[C@H](O)/C=C/[C@H]1[C@H](O)CC(=O)[C@@H]1CC(=O)CCCCCO [H, 2Decarboxy-2-hydroxymethyl-6-oxo-PGE1, reference compound] | – | – | – | – | – | – | 3.4 | inhibition in vivo at 0.1 mg/kg [1, 6]: -0.07%
5 | 51.0 | CCCCC1CCC([C@H](O)/C=C/[C@H]2[C@H](O)CC(=O)[C@@H]2CC(=O)CCCCC(=O)OC)C1 (stereo partly shown) [F, 6Oxo-15-(3RS-butyl-1RS-cyclopentyl)-16,17,18,19,20-pentanor-PGE1 methyl ester, reference compound] | – | possess cytoprotective activity | – | 12.6 | – | – | – | –
6 | – | O=C(CCCCCO)C[C@H]1C(=O)C[C@@H](O)[C@@H]1/C=C/[C@@H](O)C1CCCC1 [C, 2-decarboxy-2-hydroxymethyl-6-oxo-15-cyclopentyl-16,17,18,19,20-pentanor-PGE1] | superior in their cytoprotective activity to the known compound H | possess cytoprotective activity | very weak side-effects | 0.77 | very weak side-effects | no deaths in 5 cases | – | inhibition in vivo at 0.2 mg/kg [1, 5]: 7.9%; inhibition in vivo at 0.2 mg/kg [1, 6]: 29.9%

Row | Compound | Platelet aggregation inhibition (E1 = 1) [4] | cytoprotective activity compared with known compound H [1] | cytoprotective activity [1] | hypotensive side-effect (blood pressure) | Hypotensive effect (E1 = 1) (blood pressure) | platelet aggregation inhibiting side-effect [4] | deaths in acute toxicity test (mice) | inhibition in vivo at 0.1 mg/kg [1, 5] [%] | also measured
7 | CCCC1CC[C@H]([C@H](O)/C=C/[C@H]2[C@H](O)CC(=O)[C@@H]2CC(=O)CCCCCO)C1 (stereo partly drawn) [B, 2-decarboxy-2-hydroxymethyl-6-oxo-15-(3(RS)-propyl-1(S)-cyclopentyl)-16,17,18,19,20-pentanor-PGE1] | 0.05 | superior in their cytoprotective activity to the known compound H | possess cytoprotective activity | very weak side-effects | 0.35 | very weak side-effects | two deaths in 5 cases | – | inhibition in vivo at 0.05 mg/kg [1, 5]: 29.6%; inhibition in vivo at 0.05 mg/kg [1, 6]: 21.5%; inhibition of plasma GOT [2]: 52.6%; inhibition of plasma GPT [2]: 62.5%; inhibition of plasma bilirubin [2]: 30.3%; inhibition of plasma GOT [3]: 40.0%; inhibition of plasma GPT [3]: 50.3%; inhibition of plasma bilirubin [3]: 44.2%; stimulation of uterine contraction (uterine contraction): stimulated uterine contraction; duration of fall in blood pressure (blood pressure; 1 μg/kg): 17 min; fall in blood pressure (blood pressure; 1 μg/kg): 13 mmHg; duration of fall in blood pressure (blood pressure; 2 μg/kg): 37 min; fall in blood pressure (blood pressure; 2 μg/kg): 31 mmHg
8 | CCCCC1CC[C@H]([C@H](O)/C=C/[C@H]2[C@H](O)CC(=O)[C@@H]2CC(=O)CCCCCO)C1 (stereo partly drawn) [A, 2-decarboxy-2-hydroxymethyl-6-oxo-15-(3(RS)-butyl-1(S)-cyclopentyl)-16,17,18,19,20-pentanor-PGE1] | 0.05 | superior in their cytoprotective activity to the known compound H | possess cytoprotective activity | very weak side-effects | 1.2 | very weak side-effects | no deaths in 5 cases | 71.8 | inhibition in vivo at 0.02 mg/kg [1, 5]: 56.6%; inhibition in vivo at 0.02 mg/kg [1, 6]: 58.8%; inhibition in vivo at 0.1 mg/kg [1, 6]: 53.6%; inhibition of plasma GOT [3]: 20.4%; inhibition of plasma GPT [3]: 45.1%; inhibition of plasma bilirubin [3]: 36.2%; stimulation of uterine contraction (uterine contraction): stimulated uterine contraction

Source: US4473587A, “Prostaglandin E1 analogues” (Ono Pharmaceutical Co., Ltd., priority 1982, dated 1984)
